In ChEMBL document CHEMBL1201862, “PubChem BioAssay data set” (2004):
Activity calls are given as the source filed them.

What was measured:
[1] = target: T1, Histone-lysine N-methyltransferase NSD2 (Homo sapiens, UniProt O96028); assay type: biochemical
T1 sequence (O96028 whole entry): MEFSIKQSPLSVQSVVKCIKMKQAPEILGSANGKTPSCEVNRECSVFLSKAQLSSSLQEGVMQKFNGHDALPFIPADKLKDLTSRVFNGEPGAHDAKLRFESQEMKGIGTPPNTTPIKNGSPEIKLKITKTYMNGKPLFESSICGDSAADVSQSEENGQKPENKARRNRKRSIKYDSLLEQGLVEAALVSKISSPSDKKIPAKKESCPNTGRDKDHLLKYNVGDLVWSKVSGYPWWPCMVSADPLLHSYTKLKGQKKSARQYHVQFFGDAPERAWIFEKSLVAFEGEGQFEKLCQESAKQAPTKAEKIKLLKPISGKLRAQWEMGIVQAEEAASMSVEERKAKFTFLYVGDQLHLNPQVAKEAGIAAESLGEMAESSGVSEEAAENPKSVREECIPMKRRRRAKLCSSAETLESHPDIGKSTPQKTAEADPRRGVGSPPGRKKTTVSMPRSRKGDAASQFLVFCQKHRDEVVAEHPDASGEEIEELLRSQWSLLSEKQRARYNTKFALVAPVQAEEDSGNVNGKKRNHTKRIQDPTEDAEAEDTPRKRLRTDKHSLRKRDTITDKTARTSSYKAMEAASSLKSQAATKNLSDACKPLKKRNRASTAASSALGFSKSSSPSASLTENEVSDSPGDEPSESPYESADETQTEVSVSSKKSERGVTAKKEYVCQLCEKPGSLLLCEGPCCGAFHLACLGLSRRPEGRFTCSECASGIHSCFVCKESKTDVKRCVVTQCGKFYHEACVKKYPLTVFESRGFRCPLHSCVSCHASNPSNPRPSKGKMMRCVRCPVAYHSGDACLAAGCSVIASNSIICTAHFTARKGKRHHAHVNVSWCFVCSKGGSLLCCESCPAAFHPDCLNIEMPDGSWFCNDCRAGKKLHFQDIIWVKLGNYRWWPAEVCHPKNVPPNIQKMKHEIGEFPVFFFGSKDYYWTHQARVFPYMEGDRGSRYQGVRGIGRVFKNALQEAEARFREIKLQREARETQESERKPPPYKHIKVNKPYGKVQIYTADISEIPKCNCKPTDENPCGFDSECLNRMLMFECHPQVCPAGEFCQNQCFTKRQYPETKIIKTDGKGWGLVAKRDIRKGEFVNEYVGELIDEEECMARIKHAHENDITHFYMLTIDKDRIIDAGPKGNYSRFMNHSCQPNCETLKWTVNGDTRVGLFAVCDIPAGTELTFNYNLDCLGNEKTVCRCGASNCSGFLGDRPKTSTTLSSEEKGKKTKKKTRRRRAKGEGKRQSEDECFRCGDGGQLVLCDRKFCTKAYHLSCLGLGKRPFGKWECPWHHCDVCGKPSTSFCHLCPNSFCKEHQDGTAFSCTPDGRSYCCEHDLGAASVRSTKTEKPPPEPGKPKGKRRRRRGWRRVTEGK

Caspase-6 = Caspase-6 (Homo sapiens, UniProt P55212); assay: inhibition of CASP6 peptide cleavage – biochemical, VEID-R110 fluorescence, cherry-pick, dose response (AID 720632)
Sequence of Caspase-6 (P55212 24-179 limits assumed): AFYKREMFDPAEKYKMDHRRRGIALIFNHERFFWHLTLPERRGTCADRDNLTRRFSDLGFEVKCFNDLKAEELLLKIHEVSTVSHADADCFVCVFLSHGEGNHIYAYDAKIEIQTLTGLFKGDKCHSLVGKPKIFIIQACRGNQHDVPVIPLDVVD
Sequence of Caspase-6 (P55212 194-293 limits assumed): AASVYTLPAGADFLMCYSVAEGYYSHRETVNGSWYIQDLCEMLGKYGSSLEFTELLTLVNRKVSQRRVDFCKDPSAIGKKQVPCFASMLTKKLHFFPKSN

HeLa = assay: viability loss in HeLa cells – cell-based, 24 h, cherry-picked samples, cytotoxicity control, dose response (AID 504726); assay type: functional; conditions: Homo sapiens;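 note: potency for cytotoxicity as loss of luminescence signal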
[2] = toxicity toward HepG2 liver cells – cell-based, plate reader, cherry-pick, antagonist series, cytotoxicity control, dose response (AID 743416); assay type: functional
[3] = blockade of melanocortin 4 receptor signaling – cell-based, plate reader, cherry pick, counter-screen for LGR2 antagonist project, dose response (AID 743444); assay type: functional;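 note: transfected HEK 293 cells stimulated with alpha-MSH peptide; potency of inhibitors of the alpha-MSH evoked signal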
HEK293 = assay: EBV LMP1 TES2 canonical NF-kB signalling blockers – cell-based, HEK293, luciferase, cherry-pick, dose response (AID 588343); assay type: functional; conditions: Homo sapiens
[4] = blockers of bursicon-stimulated LGR2 cAMP reporter – cell-based, HEK293, CRE-luciferase reporter, cherry pick, set 2, dose response (AID 743343); assay type: functional;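 note: transfected cells were stimulated with diluted bursicon conditioned medium after compound addition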
[5] = target: Luciferin 4-monooxygenase (Photinus pyralis, UniProt P08659); assay: Counter Screen for Luciferase-based Assay Positives. [Related pubchem assays: 620, 618, 411 ]
Sequence of Luciferin 4-monooxygenase (P08659 whole entry): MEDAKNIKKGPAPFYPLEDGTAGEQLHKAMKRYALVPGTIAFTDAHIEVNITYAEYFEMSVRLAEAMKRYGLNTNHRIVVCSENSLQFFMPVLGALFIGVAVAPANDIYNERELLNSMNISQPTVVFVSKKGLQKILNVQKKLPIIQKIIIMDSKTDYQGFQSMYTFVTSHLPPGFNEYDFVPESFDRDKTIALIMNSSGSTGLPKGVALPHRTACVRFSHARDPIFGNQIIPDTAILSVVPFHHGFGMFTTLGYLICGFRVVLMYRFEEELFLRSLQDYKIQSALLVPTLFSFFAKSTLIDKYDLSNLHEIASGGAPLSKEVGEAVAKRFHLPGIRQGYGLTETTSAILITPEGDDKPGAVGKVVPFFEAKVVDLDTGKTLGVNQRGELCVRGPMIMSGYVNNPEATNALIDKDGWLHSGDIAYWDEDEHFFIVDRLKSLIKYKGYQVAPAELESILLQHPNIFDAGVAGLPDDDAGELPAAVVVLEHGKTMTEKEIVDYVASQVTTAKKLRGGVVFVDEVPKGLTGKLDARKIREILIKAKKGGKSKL

HT-1080 = assay: HT1080 cell viability loss – fluorescence readout (AID 620); assay type: functional, cell-based; conditions: Homo sapiens
[6] = A549 cell cytotoxicity, dose response, cytotoxicity control, plate reader, cherry-pick, antagonist series (AID 743412); assay type: functional, cell-based
[7] = viability loss in HEK293 cells – cell-based, plate reader, cherry-picked samples, cytotoxicity control, dose response (AID 743446); assay type: functional
Cytochrome P450 3A4 = Cytochrome P450 3A4 (Homo sapiens, UniProt P08684); conditions: Potency;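 note: confirmatory qHTS run detecting inhibitors and substrates of CYP3A4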
Sequence of Cytochrome P450 3A4 (P08684 whole entry): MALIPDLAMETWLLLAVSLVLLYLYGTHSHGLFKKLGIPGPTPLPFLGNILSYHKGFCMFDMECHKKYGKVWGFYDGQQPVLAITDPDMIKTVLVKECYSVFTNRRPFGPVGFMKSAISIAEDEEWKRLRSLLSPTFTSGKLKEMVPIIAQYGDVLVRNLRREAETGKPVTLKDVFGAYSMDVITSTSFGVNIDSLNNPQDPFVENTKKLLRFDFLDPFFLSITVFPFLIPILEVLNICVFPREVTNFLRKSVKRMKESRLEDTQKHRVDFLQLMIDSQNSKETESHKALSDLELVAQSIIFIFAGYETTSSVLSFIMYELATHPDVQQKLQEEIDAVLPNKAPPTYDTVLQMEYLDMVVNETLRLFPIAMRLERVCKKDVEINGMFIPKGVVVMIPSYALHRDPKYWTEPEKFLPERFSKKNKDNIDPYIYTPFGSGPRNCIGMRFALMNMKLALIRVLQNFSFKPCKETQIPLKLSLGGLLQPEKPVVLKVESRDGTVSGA

Cytochrome P450 2C9 = Cytochrome P450 2C9 (Homo sapiens, UniProt P11712); conditions: Potency
Sequence of Cytochrome P450 2C9 (P11712 whole entry): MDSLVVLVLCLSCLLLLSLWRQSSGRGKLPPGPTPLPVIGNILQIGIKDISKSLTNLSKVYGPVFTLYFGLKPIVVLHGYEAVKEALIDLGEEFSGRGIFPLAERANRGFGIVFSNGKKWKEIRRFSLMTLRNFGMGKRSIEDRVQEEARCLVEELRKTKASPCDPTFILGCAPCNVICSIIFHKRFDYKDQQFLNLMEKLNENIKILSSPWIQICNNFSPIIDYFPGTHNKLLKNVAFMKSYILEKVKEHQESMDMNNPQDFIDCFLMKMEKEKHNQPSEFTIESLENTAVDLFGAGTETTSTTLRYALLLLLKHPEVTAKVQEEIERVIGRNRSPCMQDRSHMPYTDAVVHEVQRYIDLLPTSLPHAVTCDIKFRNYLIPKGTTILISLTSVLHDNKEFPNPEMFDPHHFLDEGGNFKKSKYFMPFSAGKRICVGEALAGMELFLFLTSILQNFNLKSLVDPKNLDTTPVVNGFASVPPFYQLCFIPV

Cytochrome P450 2C19 = Cytochrome P450 2C19 (Homo sapiens, UniProt P33261); assay: qHTS Assay for Inhibitors and Substrates of Cytochrome P450 2C19. [Related pubchem assays: 410 ]; assay type: ADME; conditions: read-out: Potency
Sequence of Cytochrome P450 2C19 (P33261 whole entry): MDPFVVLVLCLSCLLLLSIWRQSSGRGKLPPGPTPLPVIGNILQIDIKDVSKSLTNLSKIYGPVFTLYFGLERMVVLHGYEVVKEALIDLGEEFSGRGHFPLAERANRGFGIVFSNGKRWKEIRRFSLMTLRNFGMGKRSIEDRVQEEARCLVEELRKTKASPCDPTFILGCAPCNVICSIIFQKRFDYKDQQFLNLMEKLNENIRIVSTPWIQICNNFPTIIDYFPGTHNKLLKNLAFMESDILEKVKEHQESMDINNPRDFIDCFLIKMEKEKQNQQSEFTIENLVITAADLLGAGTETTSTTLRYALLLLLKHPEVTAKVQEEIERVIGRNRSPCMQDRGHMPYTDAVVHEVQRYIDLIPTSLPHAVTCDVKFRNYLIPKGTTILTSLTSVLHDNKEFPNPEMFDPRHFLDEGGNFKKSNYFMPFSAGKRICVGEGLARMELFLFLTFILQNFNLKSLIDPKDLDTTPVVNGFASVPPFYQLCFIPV

Cytochrome P450 2D6 = Cytochrome P450 2D6 (Homo sapiens, UniProt P10635); assay: qHTS Assay for Inhibitors and Substrates of Cytochrome P450 2D6. [Related pubchem assays: 410 ]; assay type: ADME; conditions: read-out: Potency
Sequence of Cytochrome P450 2D6 (P10635 whole entry): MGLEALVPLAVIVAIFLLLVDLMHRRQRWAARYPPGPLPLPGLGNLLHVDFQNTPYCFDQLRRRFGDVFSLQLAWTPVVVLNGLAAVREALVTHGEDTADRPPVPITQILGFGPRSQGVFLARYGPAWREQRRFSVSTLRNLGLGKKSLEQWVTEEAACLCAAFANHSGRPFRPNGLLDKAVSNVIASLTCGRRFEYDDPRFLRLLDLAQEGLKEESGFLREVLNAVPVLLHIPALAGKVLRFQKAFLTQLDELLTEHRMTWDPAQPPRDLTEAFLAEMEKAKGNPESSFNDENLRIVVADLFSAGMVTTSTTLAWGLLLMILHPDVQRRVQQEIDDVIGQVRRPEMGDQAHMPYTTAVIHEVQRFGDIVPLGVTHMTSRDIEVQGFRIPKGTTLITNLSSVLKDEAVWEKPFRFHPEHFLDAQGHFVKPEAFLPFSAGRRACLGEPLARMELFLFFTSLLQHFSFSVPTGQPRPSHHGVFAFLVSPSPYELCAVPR

BJ [8] = assay: BJ-TERT-LT-ST fibroblast viability loss – cell-based, RAS-independent, luminescence, dose response (AID 1935); assay type: functional; conditions: Homo sapiens;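 note: BJ fibroblasts immortalized with TERT plus LT and ST oncogenes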
BJ [9] = assay: growth inhibition of engineered Ras-driven BJ cells – cell-based, alamar blue fluorescence, cherrypicked samples, dose response (AID 2631); assay type: functional; conditions: Homo sapiens;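 note: confirmatory dose-response assay in RAS-dependent BJ fibroblasts engineered with TERT, LT and ST, with cytotoxicity read by fluorescence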
[10] = DRD fibroblast viability loss – cell-based, non-viral oncogenic, luminescence, dose response (AID 1934); assay type: functional; conditions: Homo sapiens
[11] = alpha-synuclein stem-loop luciferase translation blockers – H4 neuroglioma cells, luminescence, confirmation (AID 1988); assay type: functional, cell-based
cells = assay type: functional, cell-based
BJ [12] = assay: cells; assay type: functional, cell-based; conditions: Homo sapiens
[13] = Luminescence-based dose response cell-based high throughput screening assay for cytotoxic compounds using the IEC-6 intestinal epithelial cell line. [Related pubchem assays: 1858 (Summary AID.), 1825 (Counterscreen.), 1907 (Confirmation screen.)]; assay type: functional
[14] = luciferase reporter signal reduction – luminescence, H4-C neuroglioblastoma cells, dose response (AID 2458); assay type: functional, cell-based;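 note: H4 neuroglioblastoma cells stably carrying a luciferase reporter gene fusion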
BJ [15] = assay: BJ-TERT fibroblast viability loss – cell-based, RAS-independent, luminescence, dose response (AID 1933); assay type: functional; conditions: Homo sapiens
[16] = alpha-synuclein stem-loop translation blockers – luminescence, H4 neuroglioblastoma cells, dose confirmation, confirmation (AID 2454); assay type: functional, cell-based;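 note: H4 neuroglioblastoma cells carrying an alpha-synuclein 5'UTR luciferase reporter; potency for inhibition of the luciferase signal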
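Throughout, for IC50: cell viability measured after two days of compound exposure.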

Question: For CCN(C(=O)COC(=O)c1ccc([N+](=O)[O-])o1)C1CCCCC1, which AC50 [1] is on record?
Answer: > 20 µM (inactive)

Question: What about the AC50 (Caspase-6) of the same compound?
Answer: 34.1 µM (active)

Question: And the AC50 (HeLa)?
Answer: > 350 µM (inactive)

Question: For O=C(Nc1ccc(CN2CCOCC2)cc1)c1cc2ccccn2n1, which AC50 [2] is on record?
Answer: > 52 µM (inactive)

Question: What about the AC50 [3] of the same compound?
Answer: 5.82 µM (active)

Question: What about the AC50 (HEK293) of the same compound?
Answer: 3.01 µM (active)

Question: What about the AC50 [4] of the same compound?
Answer: 2.6 µM (active)

Question: And the EC50 [5]?
Answer: 71.5 µM (active)

Question: What about the EC50 (HT-1080) of the same compound?
Answer: > 50 µM (not active)

Question: What about the AC50 [6] of the same compound?
Answer: > 52 µM (inactive)

Question: What about the AC50 [7] of the same compound?
Answer: 36 µM (active)

Question: With COC(=O)C(/C=C/C(C)Cc1cc(Br)cc(OCc2ccccc2)c1OC)OCc1ccccc1 (configuration not stated) as the compound, how does the AC50 (Cytochrome P450 3A4) read?
Answer: 3.16 µM (inconclusive)

Question: What about the AC50 (Cytochrome P450 2C9) of the same compound?
Answer: 3.16 µM (inconclusive)

Question: For COC(=O)NC(/C(C(=O)OC)=C(\C)NCc1ccccc1)c1ccccc1 (configuration not stated), which AC50 (Cytochrome P450 2C19) is on record?
Answer: 0.0079 µM (inconclusive)

Question: What about the AC50 (Cytochrome P450 3A4) of the same compound?
Answer: 3.98 µM (inconclusive)

Question: And the AC50 (Cytochrome P450 2D6)?
Answer: 3.98 µM (inconclusive)

Question: And the AC50 (Cytochrome P450 2C9)?
Answer: 3.16 µM (inconclusive)

Question: Which results are given for Cc1cccc2cc(C#N)c(SCC(=O)N3CC(=O)Nc4ccccc43)nc12?
Answer: EC50 (BJ [8]): 0.46 µM (active); EC50 (BJ [9]): < 0.104 µM (active); EC50 [10]: 0.804 µM (active); EC50 [11]: < 0.1 µM (active); EC50 (cells): 2.36 µM (active); EC50 (BJ [12]): 18 µM (active); IC50 [13]: 0.58 µM (active); EC50 [14]: 1.59 µM (active); EC50 (BJ [15]): 0.583 µM (inconclusive); EC50 [16]: 1.42 µM (active)
